For data set [1], the system named is alcohol-exposed AECs. Nature of the data set: Quantification of % cells with 3 or more tight-junction spikes, alcohol-exposed AECs. It counts as cell-based, rat. The conditions noted are these: for tight junction spikes versus control shRNA: alcohol exposed AECs transduced with lentiviral shRNA. The method, then:
Morphologic disruption of tight junctions was not restricted to claudin-18, as claudin-5 and ZO-1 were also impaired in YFP-claudin-5-transduced AECs. To determine whether ZO-1 disruption was specifically linked to increased claudin-5, the effect of increased YFP-claudin-3 on ZO-1 localization by AECs was examined. […] In a complementary experiment, it was determined whether the ability of alcohol to induce formation of tight-junction spikes was antagonized by depleting claudin-5 using shRNA. […] Thus, claudin-5 was […] to enhance formation of tight-junction spikes.
(§1) To further confirm that spikes were sites of active claudin vesicle formation and fusion, the effects of the dynamin inhibitor Dynasore14 was examined on spike formation by alcohol-exposed AECs.

Data set [2] relates to control AECs. Nature of the data set: Paracellular flux of tracers, control AECs. It counts as cell-based, rat. As to conditions: 10 mM peptide, 16 h. The procedure: (§2) The difference between AECs isolated from control- and alcohol-fed animals (alcohol-exposed AECs) was evaluated using two different measures of barrier function: transepithelial resistance (TER) and paracellular flux to soluble tracer molecules. […] Thus, alcohol exposure has a deleterious effect on AEC tight junctions.

The target in data set [3] is T1, claudin-5 (Rattus norvegicus, UniProt Q9JKD6).
T1 construct: endogenous in cells; host or cells: primary alveolar epithelial cells (AECs) from alcohol-fed rats
T1 sequence (Q9JKD6 1-218): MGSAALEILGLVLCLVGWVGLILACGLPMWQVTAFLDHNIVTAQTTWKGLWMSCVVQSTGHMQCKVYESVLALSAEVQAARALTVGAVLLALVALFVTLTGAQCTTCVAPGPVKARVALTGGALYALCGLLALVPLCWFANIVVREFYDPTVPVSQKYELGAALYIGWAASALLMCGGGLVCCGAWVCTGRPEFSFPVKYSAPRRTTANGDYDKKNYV
Nature of the data set: Immunoblot for claudin-5, alcohol-exposed AECs. It counts as cell-based. As to conditions: peptide-treated cells from alcohol-fed rats; P=0.042 versus untreated, P=0.016 versus control. (In general: A western blot detects proteins with antibodies after separation by electrophoresis.)

The subject of data set [4] is control AECs. Nature of the data set: Transepithelial resistance (TER), control AECs. The class given is cell-based, rat. As to conditions: 10 mM peptide, 16 h. The method, then: (§3) AECs isolated from control were cultured on Transwell permeable supports for 5 days and then either untreated (un), or incubated with 10 mM control peptide (con; Ac-LYQY(SEQ ID NO:35)-NH2) or a claudin-5 extracellular domain mimetic peptide (C5; Ac-EFYDP(SEQ ID NO:1)-NH2) for 16 h. The cells were examined for barrier function by transepithelial resistance (TER).
as §2

Data set [5] concerns ZO-1. Nature of the data set: Immunoblot for ZO-1, alcohol-exposed AECs. The class given is cell-based, rat. As to conditions: peptide-treated alcohol-exposed AECs.
Data set [6] has as its system claudin-1. The data set can be described thus: Claudin-1 content, alcohol-exposed AECs. It counts as cell-based, rat. The conditions noted are these: peptide-treated alcohol-exposed AECs. The source says:
By contrast, control AECs were unaffected by the Ac-EFYDP(SEQ ID NO: 1)-NH2 peptide (FIG. 7A, C, E). A control peptide, Ac-LYQY (SEQ ID NO:35)-NH2, had no effect on AEC barrier function in either control or alcohol-exposed cells. The ability of Ac-EFYDP(SEQ ID NO: 1)-NH2 to improve the barrier function of alcohol-exposed AECs correlated with a decrease in tight-junction spike formation (FIG. 7G) and a specific decrease in total claudin-5 content (FIG. 7I). Claudin-18 and ZO-1 were unaffected (FIG. 7I) as was claudin-1.

The target of data set [7] is T2, claudin-18 (Rattus norvegicus, UniProt Q5I0E5).
T2 construct: endogenous in cells; host or cells: primary alveolar epithelial cells (AECs) from alcohol-fed rats
T2 sequence (Q5I0E5 1-261): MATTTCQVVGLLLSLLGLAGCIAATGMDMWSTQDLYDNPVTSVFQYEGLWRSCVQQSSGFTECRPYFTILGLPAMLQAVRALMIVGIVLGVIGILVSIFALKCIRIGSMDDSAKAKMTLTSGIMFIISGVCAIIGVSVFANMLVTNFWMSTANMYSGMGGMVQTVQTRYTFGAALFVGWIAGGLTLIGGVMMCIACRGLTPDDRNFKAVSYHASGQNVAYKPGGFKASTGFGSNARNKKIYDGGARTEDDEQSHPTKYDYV
The data set can be described thus: Immunoblot for claudin-18, alcohol-exposed AECs. It counts as cell-based. As to conditions: peptide-treated alcohol-exposed AECs.

Data set [8] has as its system alcohol-exposed AECs. Nature of the data set: Paracellular flux of tracers, alcohol-exposed AECs. It counts as cell-based, rat. The conditions noted are these: 10 mM peptide, 16 h. The procedure: as §2
Data set [9] has as its system alcohol-exposed AECs. Nature of the data set: Transepithelial resistance (TER), alcohol-exposed AECs. It counts as cell-based, rat. As to conditions: 10 mM peptide, 16 h (overnight); alcohol-exposed AECs on Transwell. The procedure:
as §3, §2

Data set [10] has as its system control AECs. As to conditions: normal AECs treated with inhibitor; cited from earlier work.
Data set [11] concerns claudin-5. As to conditions: normal AECs treated with inhibitor; cited from earlier work.
The test system of data set [12] is alcohol-exposed AECs. Nature of the data set: Live-cell imaging of YFP-claudin-18 in alcohol-exposed AECs. The class given is cell-based, rat. As to conditions: Dynasore-treated alcohol-exposed AECs.
Text: as §1

In data set [13] the test system is control AECs. The data set can be described thus: Quantification of % cells with 3 or more tight-junction spikes, control AECs. The class given is cell-based, rat. As to conditions: Dynasore treatment.
Text: as §1

Data set [14] deals with claudin-3 and claudin-4. The conditions noted are these: cited from earlier work.

Where a SMILES comes first, the peptide text is derived from it.

For `CC(=O)NC(CCC(=O)O)C(=O)NC(Cc1ccccc1)C(=O)NC(Cc1ccc(O)cc1)C(=O)NC(CC(=O)O)C(=O)N1CCCC1C(N)=O` (stereo not shown) [Ac-EFYDP(SEQ ID NO: 1)-NH2, Ac-EFYDP(SEQ ID NO:1)-NH2] (Ac-EFYDP-NH2; configuration not given here), the tight-junction spike formation result in [1] (peptide-treated alcohol-exposed AECs, P<0.001 versus untreated and control peptide) is “decrease”. Besides, the “paracellular flux of 10 kDa Texas Red dextran” value in [2] is listed as “unaffected”; in data set [8], “decrease”. Also, the “paracellular flux of calcein” value in data set [2] was “unaffected”; in data set [8], “decrease”. Besides, the “total claudin-5 content (immunoblot)” value in data set [3] was “significant and specific decrease”. The TER result in data set [4] was “unaffected”; in data set [9] it was “increase”. The “ZO-1 content (immunoblot)” value in [5] is “unaffected”. In addition, in [6], the claudin-1 content result is reported as “unaffected”. For the same molecule, in [7], the “claudin-18 content (immunoblot)” value is on record as “unaffected”.

Turning to `Cc1ccc2nc(NCCN)c3ncc(C)n3c2c1` [BMS-345541], in data set [10], the “formation of tight-junction spikes” value is listed as “increased”. In addition, the claudin-5 expression entry in data set [11] is “increased”.

Consider `O=C(NN=Cc1ccc(O)c(O)c1)c1cc2ccccc2cc1O` [Dynasore, N′-(3,4-dihydroxybenzylidene)-3-hydroxy-2-naphthohydrazide], for which, in data set [12], the “punctate YFP-claudin-18 labelling” value is on record as “increase”. The “% cells containing 3 or more tight junction spikes oriented towards the nucleus” value in [1] (160 μM for 4 h, cells from alcohol fed rats, P=0.002) is “significantly decreased”. Besides, the “spike formation by control cells” value in data set [13] was “did not have a significant effect”.

For Ac-DFYNP-NH2, the “effectiveness of D-amino acid version relative to corresponding L-amino acid version” value in data set [14] is 10-100 fold.

On to “Ac-LYQY(SEQ ID NO:35)-NH2 (Ac-LYQY-NH2) [Ac-LYQY (SEQ ID NO:35)-NH2, control peptide, reference compound]”, for which the “paracellular flux of 10 kDa Texas Red dextran” value in data set [2] and in [8] was “no effect” each time. Moreover, the “paracellular flux of calcein” value in [2] and in data set [8] was “no effect” throughout. Moreover, the TER entry in data set [4] and in data set [9] was “no effect” throughout.

B1: claudin-5 shRNA1: lentiviral short hairpin RNA targeting claudin-5, 616-624, SEQ ID NO: 27/28 (nucleic acid)
chain 1: CCCCCCAACGGCGATTACGACAATTCAAGAGATTGTCGTAATCGCCGTTGGTTTTTGG
chain 2: CCAAAAACCAACGGCGATTACGACAATCTCTTGAATTGTCGTAATCGCCGTTGGGGGG
For B1, the “tight junction spikes versus control shRNA” value in data set [1] is reported as “significantly fewer”.

B2: shRNA2: lentiviral short hairpin RNA targeting claudin-5, 1594-1612, SEQ ID NO: 29/30 (nucleic acid)
chain 1: CCCCCCACCAAACTGCCGCTAACTTCAAGAGAGTTAGCGGCAGTTTGGTGGTTTTTGG
chain 2: CCAAAAACCACCAAACTGCCGCTAACTCTCTTGAAGTTAGCGGCAGTTTGGTGGGGGG
As for B2, the “tight junction spikes versus control shRNA” value in data set [1] is on record as “trend towards decreased spikes”.

(Values after patent publication US10919934B2, “Compositions and methods for managing respiratory conditions” (Emory University, priority 2017, dated 2021).)
